Measured values reported in patent US9643967B2, “Pyrrolo[3,2-c]pyridine derivatives as TLR inhibitors” (TAKEDA PHARMACEUTICAL COMPANY LIMITED, priority 2013, dated 2017).
Where two headings read alike, the source gives them in different places.

Target: T1, mTLR7 (Mus musculus, UniProt P58681)
T1 construct: Splenocytes isolated from male C57/BL6 mice; from tissue; host or cells: splenocytes from the spleen of male C57BL/6 mice
T1 sequence (P58681 27-1050): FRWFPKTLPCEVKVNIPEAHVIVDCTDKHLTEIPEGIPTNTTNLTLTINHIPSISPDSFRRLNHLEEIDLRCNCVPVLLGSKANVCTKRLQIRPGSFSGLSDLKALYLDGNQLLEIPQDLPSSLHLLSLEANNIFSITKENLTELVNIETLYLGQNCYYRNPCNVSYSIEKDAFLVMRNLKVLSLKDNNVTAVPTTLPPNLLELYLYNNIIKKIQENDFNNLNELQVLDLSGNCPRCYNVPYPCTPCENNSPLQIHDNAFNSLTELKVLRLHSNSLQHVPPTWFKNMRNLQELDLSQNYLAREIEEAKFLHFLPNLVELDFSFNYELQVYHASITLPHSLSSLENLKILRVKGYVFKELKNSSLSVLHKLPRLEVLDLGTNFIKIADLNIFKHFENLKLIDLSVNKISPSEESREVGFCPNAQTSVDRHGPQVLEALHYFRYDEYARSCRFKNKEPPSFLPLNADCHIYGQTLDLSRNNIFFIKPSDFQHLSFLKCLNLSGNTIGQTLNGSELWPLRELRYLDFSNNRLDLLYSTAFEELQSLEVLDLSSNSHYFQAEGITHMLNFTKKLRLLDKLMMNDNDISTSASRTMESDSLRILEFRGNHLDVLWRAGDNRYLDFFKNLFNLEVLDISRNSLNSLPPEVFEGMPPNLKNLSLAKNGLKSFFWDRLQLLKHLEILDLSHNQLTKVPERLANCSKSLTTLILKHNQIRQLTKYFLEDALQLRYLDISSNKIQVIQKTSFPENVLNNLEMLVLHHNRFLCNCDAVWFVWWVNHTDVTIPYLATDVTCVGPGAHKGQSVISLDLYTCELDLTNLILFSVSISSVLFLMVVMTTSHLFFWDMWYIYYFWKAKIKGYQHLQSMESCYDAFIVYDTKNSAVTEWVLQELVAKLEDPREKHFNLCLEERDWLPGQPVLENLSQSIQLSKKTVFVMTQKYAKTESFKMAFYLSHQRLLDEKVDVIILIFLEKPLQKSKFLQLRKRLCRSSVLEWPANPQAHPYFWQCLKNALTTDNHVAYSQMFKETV
Experiment: mTLR7 antagonism (IL-6 and TNF-α release assay) in mouse splenocytes, R0006/DOTAP stimulated
Format: cell-based
Conditions: 1 μM, mouse splenocytes
Source text: mTLR9 and mTLR7 Antagonism (Cytokine Release Assay) in Mouse Splenocytes
TLR7 ligand R0006 (IDT, 5′-rU*rU*rG*rU*rU*rG*rU*rU*rG*rU*rU*rG*rU*rU*rG*rU*rU*rG*rU*rU-3′ (SEQ ID NO:1)), Liposomal transfection reagent—DOTAP (Roche, Cat. No. 11202375001), TLR9 ligand CpG ODN2006 (Sequence: T*C*G*T*C*G*T*T*T*T*G*T*C*G*T*T*T*T*G*T*C*G*T*T; *=phosphorothioate (SEQ ID NO:2)) DMSO (Sigma, D2650), RPMI Powder (Sigma, R6504), Fetal Bovine Serum (Gibco, 10270), Dulbecco's Phosphate Buffered Saline (Sigma, D1408), 96 well plate (Flat bottom, Costar 3599), ELISA kit for IL-6 (EBioscience, 88-7064-77 and TNFa (EBioscience, 88-7346-88), MACS Buffer (AutoMACS Rinsing Solution (Miltenyl Biotec, 130-091-222)+0.05% BSA), RBC lysis buffer (0.85% NH4Cl), 40 μm cell strainer (BD Falcon, 352340) Method: A. Isolation of Mouse Splenocytes
Mouse spleen was isolated from C57BL6 mouse and stored in 1× chilled PBS buffer until further processed. Spleen was transferred to a sterile petriplate and chopped in to 5-6 pieces in presence of MACS buffer (100 μl) with the help of fresh surgical blade and crushed with flat plunger of a sterile syringe. A uniform suspension was prepared by passing cells through a 40 μm cell strainer. Cells were centrifuged at 450×g for 5 minutes at 4° C., supernatant was discarded and pellet dislodged gently, resuspended in 2 ml of pre-warmed (37° C.) RBC lysis buffer at room temperature with continuous gentle mixing with 1 ml pipette. Lysis buffer was neutralized with 12 ml of chilled MACS buffer and cells were passed through 40 μm cell strainer. Cell suspension was collected in 15 ml MACS buffer and centrifuged at 450×g for 5 minutes at 4° C. Pellet was resuspended in 15 ml MACS buffer and centrifuged at 400×g for 5 minutes. Cells were resuspended in 10 ml of RPMI complete medium and viability was estimated by Trypan blue method.
mTLR7 Antagonism (IL-6 and TNF-α Release Assay):
1 mg/ml stock of R0006 was prepared in sterile, endotoxin-free water. R0006 stock was diluted 10 fold with DOTAP and incubated for 30 minutes to form liposome complex (100 μg/ml of R0006). This complex was further diluted 10 fold with incomplete RPMI media (10 μg/ml of R0006) to achieve the final agonist concentration of 1 μg/ml. DOTAP alone was diluted 10 fold in incomplete RPMI media. NCEs were added in a concentration range of 30 μM to 1 nM in respective wells of assay plate, assay medium containing 0.3% DMSO were added to control wells. 0.2 million splenocytes were added to all the wells and incubated at 37° C. in 5% CO2 incubator for 30 minutes. 1 μg/ml of respective agonist was added to all the wells except those were assigned as negative controls and mixed thoroughly. DOTAP was added to negative control wells and incubated overnight at 37° C./5% CO2. The plate was centrifuged at 450×g for 5 minutes at room temperature and the supernatant was collected. ELISA was performed as per manufacturer's protocol. S/B Ratio, % Activity and % Inhibition was calculated using MS Excel. IC50 and inhibition curve was generated using Graph Pad Prism.

[1] = IL-6 release, read-out: mTLR7 inhibitory activity (% at 1 μM), IL-6
[2] = TNF-α release, read-out: mTLR7 inhibitory activity (% at 1 μM), TNF-α

inhibition at 1 µM [1] | inhibition at 1 µM [2] | Structure (SMILES)
97% | 100% | CC(C)N1CCN(c2ccc(-c3nccc4[nH]c(CN5CCOCC5)cc34)cc2)CC1 [Example A1, 4-[[4-[4-(4-isopropylpiperazin-1-yl)phenyl]-1H-pyrrolo[3,2-c]pyridin-2-yl]methyl]morpholine]
90% | 100% | CN1CCN(c2ccc(-c3nccc4[nH]c(CN5CCOCC5)cc34)cc2)CC1 [Example A2, 4-[[4-[4-(4-methylpiperazin-1-yl)phenyl]-1H-pyrrolo[3,2-c]pyridin-2-yl]methyl] morpholine]
100% | 100% | CCN1CCN(c2ccc(-c3nccc4[nH]c(CN5CCOCC5)cc34)cc2)CC1 [Example A3, 4-[[4-[4-(4-ethylpiperazin-1-yl)phenyl]-1H-pyrrolo[3,2-c]pyridin-2-yl]methyl] morpholine]
100% | 100% | Cc1cc2[nH]c(CN3CCOCC3)cc2c(-c2ccc(N3CCN(C(C)C)CC3)cc2)n1 [Example A4, 4-[[4-[4-[4-isopropylpiperazin-1-yl)phenyl]-6-methyl-1H-pyrrolo[3,2-c]pyridin-2-yl]methyl] morpholine]
100% | 100% | CCN1CCN(c2ccc(-c3nc(C)cc4[nH]c(CN5CCOCC5)cc34)cc2)CC1 [Example A5, 4-[[4-[4-(4-ethylpiperazin-1-yl)phenyl]-6-methyl-1H-pyrrolo[3,2-c]pyridin-2-yl]methyl] morpholine]
100% | 100% | CC(C)N1CCN(c2ccc(-c3nccc4c3cc(CN3CCOCC3)n4C)cc2)CC1 [Example A8, 4-[[4-[4-(4-isopropylpiperazin-1-yl)phenyl]-1-methyl-pyrrolo[3,2-c]pyridin-2-yl]methyl] morpholine]
– | 100% | CN1CCN(c2ccc(-c3nccc4c3cc(CN3CCOCC3)n4C)cc2)CC1 [Example A9, 4-[[1-methyl-4-[4-(4-methylpiperazin-1-yl)phenyl]pyrrolo[3,2-c]pyridin-2-yl]methyl] morpholine]
80% | 45% | CC(C)N1CCN(c2ccc(-c3nccc4[nH]c(CN5CCC(O)CC5)cc34)cc2)CC1 [Example A12, 1-[[4-[4-(4-isopropylpiperazin-1-yl)phenyl]-1H-pyrrolo[3,2-c]pyridin-2-yl]methyl] piperidin-4-ol]
98% | 91% | CC(C)N1CCN(c2ccc(-c3nccc4[nH]c(CN5CCC6(CC5)CC(O)C6)cc34)cc2)CC1 [Example A13, 7-[[4-[4-(4-isopropylpiperazin-1-yl)phenyl]-1H-pyrrolo[3,2-c]pyridin-2-yl]methyl]-7-azaspiro[3.5] nonan-2-ol]
100% | 99% | CC(C)N1CCN(c2ccc(-c3nccc4[nH]c(CN5CC(F)C5)cc34)cc2)CC1 [Example A16, 2-[(3-fluoroazetidin-1-yl)methyl]-4-[4-(4-isopropylpiperazin-1-yl)phenyl]-1H-pyrrolo[3,2-c]pyridine]
100% | 100% | CC(C)N1CCN(c2ccc(-c3nccc4[nH]c(CN5CCCCC5)cc34)cc2)CC1 [Example A17, 4-[4-(4-isopropylpiperazin-1-yl)phenyl]-2-(1-piperidylmethyl)-1H-pyrrolo[3,2-c]pyridine]
– | 100% | CC(C)N1CCN(c2ccc(-c3nccc4[nH]c(CN5CCC(F)CC5)cc34)cc2)CC1 [Example A24, 2-[(4-fluoro-1-piperidyl)methyl]-4-[4-(4-isopropylpiperazin-yl)phenyl]-1H-pyrrolo[3,2-c] pyridine]
100% | 100% | CN1CCN(c2ccc(-c3nccc4[nH]c(CN5CCC(F)CC5)cc34)cc2)CC1 [Example A25, 2-[(4-fluoro-1-piperidyl)methyl]-4-[4-(4-methylpiperazin-1-yl)phenyl] - 1H-pyrrolo[3,2-c]pyridine]
88% | 100% | Cc1cc2[nH]c(Cn3cccn3)cc2c(-c2ccc(N3CCN(C(C)C)CC3)cc2)n1 [Example A28, 4-[4-(4-isopropylpiperazin-1-yl)phenyl]-6-methyl-2-(pyrazol-1-ylmethyl)-1H-pyrrolo[3,2-c]pyridine]
97% | 82% | Cc1cc2[nH]c(CN3CCC4(CC3)CC(O)C4)cc2c(-c2ccc(N3CCN(C(C)C)CC3)cc2)n1 [Example A29, 7-[[4-[4-(4-isopropylpiperazin-1-yl)phenyl]-6-methyl-1H-pyrrolo[3,2-c]pyridin-2-yl]methyl]-7-azaspiro[3.5] nonan-2-ol]
100% | 100% | Cc1cc2[nH]c(CN3CCC4(CC3)CC(C)C4)cc2c(-c2ccc(N3CCN(C(C)C)CC3)cc2)n1 [Example A30, 4-[4-(4-isopropylpiperazin-1-yl)phenyl]-6-methyl-2-[(2-methyl-7-azaspiro[3.5]nonan-7-yl)methyl]-1H-pyrrolo[3,2-c]pyridine]
– | 83% | CC(C)N1CCN(c2ccc(-c3nc(C4CC4)cc4[nH]c(CN5CCOCC5)cc34)cc2)CC1 [Example A33, 4-[[6-cyclopropyl-4-[4-(4-isopropylpiperazin-1-yl)phenyl]-1H-pyrrolo[3,2-c]pyridin-2-yl]methyl] morpholine]
– | 100% | CN1CCN(c2ccc(-c3nc(C4CC4)cc4[nH]c(CN5CCOCC5)cc34)cc2)CC1 [Example A34, 4-[[6-cyclopropyl-4-[4-(4-methylpiperazin-1-yl)phenyl]-1H-pyrrolo[3,2-c]pyridin-2-yl]methyl] morpholine]
100% | 100% | Cc1cc2c(cc(CN3CCOCC3)n2C)c(-c2ccc(N3CCN(C(C)C)CC3)cc2)n1 [Example A35, 4-[[4-[4-(4-isopropylpiperazin-1-yl]phenyl]-1,6-dimethyl-pyrrolo[3,2-c]pyridin-2-yl]methyl] morpholine]
